Experimental data as given in patent publication US20050124562A1, “Bis-quinazoline compounds for the treatment of bacterial infections” (priority 2003, published 2005).
In brackets after ≈: the same amount, converted by molar mass. Like-named read-outs stand apart in the source and are kept apart here.

Columns and labels:
[1] = test system: reconstituted bacterial DNA polymerase holoenzymes from E. coli, Y. pestis and S. pyogenes; format: biochemical
[2] = test system: S. aureus, E. faecalis, S. pyogenes and S. pneumoniae; assay: Broth microdilution MIC (NCCLS), gram-positive strains; format: cell-based
How it was run: (§1)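 MICs by broth microdilution per NCCLS M-7 A-6 against ATCC strains, including ORSA and VRE; MBCs determined for selected organisms. Serum effect assessed by repeating MIC tests with human serum present.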

[3] = test system: clinically important gram-positive pathogens; assay: Whole cell antibacterial (MIC) and bactericidal (MBC) activity; format: cell-based
Experimental: (§2) Representative bis-quinazolines were tested for antibacterial activity using the […] microdilution method to determine their minimum inhibitory concentrations (MICs). All compounds were tested using standard methods in accordance with NCCLS guidelines (National Committee for Clinical Laboratory Standards. 2003. Methods for dilution antimicrobial susceptibility testing for bacteria that grow aerobically. Approved Standard M-7 A-6, NCCLS, Wayne, Pa.). The bacterial strains used in the susceptibility tests were obtained from the American Type Culture Collection (ATCC) and included resistant phenotypes such as oxacillin-resistant S. aureus (ORSA) and vancomycin-resistant enterococci (VRE). The minimum bactericidal concentrations (MBCs) were determined for selected organisms. The effect of protein binding on the antibacterial activity of representative bis-quinazolines were determined by conducting MIC tests in the presence of human serum.

[4] = test system: clinically important bacterial pathogens; assay: MIC tests in the presence of human serum; format: cell-based; details: 50% human serum
Experimental: as §2

[5] = Single dose toxicity study in the mouse; format: in vivo; details: single dose IP, 2.5 to 25 mg/kg, female Swiss-Webster mice, monitored one week
Experimental: A single dose toxicity study was conducted in the mouse prior to evaluating the compound for in vivo efficacy. 2-(6-Methoxy-4-methyl-quinazolin-2-ylamino)-3H-quinazolin-4-ol was prepared in a vehicle consisting of 10% DMSO, 10% ethanol and 80% saline that contained 3% β-cyclodextrin. The compound was administered as a single dose to the peritoneal cavity of female Swiss-Webster mice at the six concentrations (2.5, 5, 10, 15, 20 and 25 mg/kg) proposed for evaluation in the efficacy study. The mice were monitored for toxicity for one week following compound administration.

[6] = test system: S. aureus ATCC 29213; assay: S. aureus murine intra-abdominal sepsis model; format: in vivo, mice; details: 25 mg/kg IP one hour post infection, MLD of S. aureus IP
Experimental: Typically, the model involves inoculating the intra-peritoneal cavity of the mouse with the minimum lethal dose (MLD) of the test organism. The test antimicrobial agent can be administered by any route (e.g. intravenously, sub-cutaneously, oral, intraperitoneal). Early stage compounds are evaluated following intraperitoneal administration since this is considered to be relevant to systemic treatment since most of the compound will be absorbed into the bloodstream. The compound is then monitored for its ability to protect the mouse from a lethal infection with the test organism in a concentration-dependent manner. At the same time the model provides early data on the potential toxicity of a new compound.
The S. aureus murine intra-abdominal sepsis model was used to evaluate the in vivo efficacy of 2-(6-Methoxy-4-methyl-quinazolin-2-ylamino)-3H-quinazolin-4-ol. […] The animals were then monitored at frequent intervals and the numbers of mice surviving in the different treatment groups was scored and recorded in an attempt to determine the protective dose (PD50). Levofloxacin was evaluated as a positive control (0.875, 1.75, 3.125, 6.25, 12.5 and 25 mg/kg). Vehicle only and saline controls were also evaluated.

[7] = test system: M. catarrhalis; assay: Broth microdilution MIC (NCCLS), M. catarrhalis; format: cell-based; details: Moraxella catarrhalis; some strains of M. catarrhalis; read-out: MIC range
How it was run: as §1

[8] = test system: H. influenzae; assay: Broth microdilution MIC (NCCLS), H. influenzae; format: cell-based; details: Haemophilus influenzae; some strains of H. influenzae
How it was run: as §1

[9] = test system: efflux mutants of E. coli; assay: Broth microdilution MIC (NCCLS), E. coli efflux mutants; format: cell-based; details: Escherichia coli, read-out: MICs
How it was run: as §1

[10] = test system: efflux mutants of P. aeruginosa; assay: Broth microdilution MIC (NCCLS), P. aeruginosa efflux mutants; format: cell-based; details: Pseudomonas aeruginosa, read-out: MICs
How it was run: as §1

[11] = range against some strains of S. aureus, E. faecalis, S. pyogenes and S. pneumoniae, read-out: MIC

Question: For `COc1ccc2nc(Nc3nc(O)c4ccccc4n3)nc(C)c2c1` [Example 9, 2-(6-Methoxy-4-methyl-quinazolin-2-ylamino)-quinazolin-4-ol], which “biochemical activity against reconstituted DNA polymerase holoenzymes” value [1] is on record?
Answer: demonstrated biochemical activity

Question: And the MIC [2]?
Answer: 0.06 to 16 µg/mL (≈ 0.18 to 48 µM)

Question: And the “whole cell antibacterial and bactericidal activity” value [3]?
Answer: potent whole cell antibacterial and bactericidal activity

Question: And the “antibacterial activity in the presence of human serum” value [4]?
Answer: activity is evident

Question: What about the “tolerability after single dose” value ([5]; listed as 2-(6-Methoxy-4-methyl-quinazolin-2-ylamino)-3H-quinazolin-4-ol) of the same compound?
Answer: All mice tolerated the compound

Question: And the “tolerability after single dose” value ([5]; listed as 2-(6-Methoxy-4-methyl-quinazolin-2-ylamino)-3H-quinazolin-4-one)?
Answer: well tolerated

Question: And the “mice protected from lethal S. aureus infection” value [6]?
Answer: 50%

Question: With `COc1cc2nc(Nc3nc(O)c4cc(OCCN5CCOC(CO)C5)ccc4n3)nc(C)c2cc1OC.O=C(O)C(F)(F)F` (centres unmarked) [Example 170, 2-(6,7-Dimethoxy-4-methyl-quinazolin-2-ylamino)-6-[2-(2-hydroxymethyl-morpholin-4-yl)-ethoxy]-quinazolin-4-ol trifluoroacetate salt] as the compound, how does the MIC [2, 11] read?
Answer: 0.06 to 16 µg/mL

Question: What about the MIC [7] of the same compound?
Answer: 2 to 64 µg/mL

Question: And the MIC [8]?
Answer: 16 to 32 µg/mL

Question: What about the MIC [9] of the same compound?
Answer: 16 to 64 µg/mL

Question: What about the MIC [10] of the same compound?
Answer: 64 µg/mL

Question: What does the source list for `CCN(CCOc1ccc2nc(Nc3nc(C)c4cc(OC)c(OC)cc4n3)nc(O)c2c1)CCN(C)C.O=C(O)C(F)(F)F` [Example 171, 2-(6,7-Dimethoxy-4-methyl-quinazolin-2-ylamino)-6-{2[(2-dimethylamino-ethyl)-ethyl-amino]-ethoxy}-quinazolin-4-ol trifluoroacetate salt]?
Answer: MIC [2, 11]: 0.06 to 16 µg/mL; MIC [7]: 2 to 64 µg/mL; MIC [8]: 16 to 32 µg/mL; MIC [9]: 16 to 64 µg/mL; MIC [10]: 64 µg/mL
